Data on one molecule can be found in patent publication US11249071B2, “Reactivation of x chromosome genes” (CALIFORNIA INSTITUTE OF TECHNOLOGY, priority 2015, dated 2022).

Entries after “also recorded” stand apart in the source; their conditions may differ.

For this experiment, the system named is MLF cells having silenced X genes. Put plainly: X-chromosome reactivation assay (single molecule RNA FISH) in MLF cells treated with inhibitors. The class given is cell-based. To be noted: mouse MLF cells, HDAC3 inhibitor alone (Scriptaid 100 nM), 48 hours, FIGS. 7A-7B. Here is the method:
5,000 Mouse MLF cells were plated on a poly-D-lysine (Sigma) and 0.2% gelatin (Sigma)-coated #1.5 coverslip placed into wells of a 24-well plate containing HEK media (DMEM, 10% Gemini Benchmark FBS, 1×L-glutamine, 1× sodium pyruvate, 1×NEAA, 1× Pen/Strep; Life Technologies unless otherwise indicated). After 16 hours, inhibitors were added into the media and incubated the cells for 48 hours. The inhibitors and the concentration used were: 5-Azacytidine (6 μM; Sigma, A2385), 5-Aza-2′-deoxycytidine ([…]; Sigma, A3656), RG 108 (200 μM; Abcam, ab141013), Trichostatin A (5 μM; Sigma, T8552), and Scriptaid (100 nM; Sigma, S7817).
Coverslips from siRNA transfection or inhibitor treatment were fixed in Histochoice (Sigma) for 10 min, washed thoroughly in PBS, and dehydrated in ethanol for storage until FISH staining. Single molecule RNA Fluorescence in situ hybridization (FISH) experiments were done using QuantiGene ViewRNA ISH Cell Assay (Affymetrix) and QuantiGene ViewRNA ISH Cell 740 Module (Affymetrix) according to manufacturer's protocol. […]
Cells were stained for target mRNAs and siRNA-targeted mRNA by FISH and imaged. Images were then analyzed using Matlab R2013b (described below). […] Within these cells, the copy number of target mRNAs were quantified using a peak finding method (described below) and compared across conditions. The mRNA levels were quantified for 50 individual cells. […]

`O=C(CCCCCN1C(=O)c2cccc3cccc(c23)C1=O)NO` [Scriptaid]: the “expression / reactivation of the Xist-dependent silenced Gpc4 gene, measured by levels of Gpc4 mRNA” value was “resulting in expression of Gpc4; also recorded: resulting in the reactivation of the Xist-dependent silent Gpc4 gene”.
